# Biological target: Tyrosine-protein kinase BTK (Homo sapiens, UniProt Q06187)
# Test: Assay for Binding Affinity to BTK
# Procedure: Compounds were tested using a KdELECT assay. Kinase-tagged T7 phage strains were prepared in an E. coli host derived from the BL21 strain. E. coli were grown to log-phase and infected with T7 phage and incubated with shaking at 32° C. until lysis. The lysates were centrifuged and filtered to remove cell debris. The remaining kinases were produced in HEK-293 cells and subsequently tagged with DNA for qPCR detection. Streptavidin-coated magnetic beads were treated with biotinylated small molecule ligands for 30 minutes at room temperature to generate affinity resins for kinase assays. The liganded beads were blocked with excess biotin and washed with blocking buffer (SeaBlock (Pierce), 1% BSA, 0.05% Tween 20, 1 mM DTT) to remove unbound ligand and to reduce non-specific binding. Binding reactions were assembled by combining kinases, liganded affinity beads, and test compounds in 1× binding buffer (20% SeaBlock, 0.17×PBS, 0.05% Tween 20, 6 mM DTT). Test compounds were prepared as 111X stocks in 100% DMSO. Kd values were determined using an 11-point 3-fold compound dilution series with three DMSO control points. All compounds for Kd measurements are distributed by acoustic transfer (non-contact dispensing) in 100% DMSO. The compounds were then diluted directly into the assays such that the final concentration of DMSO was 0.9%. […] The kinase concentration in the eluates was measured by qPCR.
# Chain of Tyrosine-protein kinase BTK (Q06187 whole entry): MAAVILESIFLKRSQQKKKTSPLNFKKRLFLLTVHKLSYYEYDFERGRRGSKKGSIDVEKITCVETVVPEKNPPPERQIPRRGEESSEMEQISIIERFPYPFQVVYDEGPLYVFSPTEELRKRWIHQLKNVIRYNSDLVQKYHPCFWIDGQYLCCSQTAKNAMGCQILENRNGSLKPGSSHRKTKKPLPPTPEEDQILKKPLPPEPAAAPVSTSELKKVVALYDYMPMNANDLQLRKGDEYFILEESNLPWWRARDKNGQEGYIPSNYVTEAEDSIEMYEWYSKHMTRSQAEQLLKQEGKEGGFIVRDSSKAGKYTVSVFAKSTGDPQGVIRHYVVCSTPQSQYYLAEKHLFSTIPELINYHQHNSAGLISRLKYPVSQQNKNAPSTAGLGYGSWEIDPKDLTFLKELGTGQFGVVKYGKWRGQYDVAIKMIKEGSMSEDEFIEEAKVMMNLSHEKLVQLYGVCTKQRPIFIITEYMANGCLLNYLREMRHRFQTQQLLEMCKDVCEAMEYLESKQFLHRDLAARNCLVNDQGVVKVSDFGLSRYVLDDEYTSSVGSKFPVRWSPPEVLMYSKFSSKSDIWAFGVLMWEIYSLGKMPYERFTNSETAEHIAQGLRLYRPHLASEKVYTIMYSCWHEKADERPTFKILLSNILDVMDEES
structure (smiles),measurement,value
"CCc1cnn2c(NCc3ccc(OCCOCCOCCOCCOCCOCCOCCOCCOCCOC/C=C/C(=O)N4CCC[C@@H](n5nc(-c6ccc(Oc7ccccc7)cc6)c6c(N)ncnc65)C4)nc3)cc(N3CCCC[C@H]3CCO)nc12 [US20250136619, Compound I-47]",Kd,< 0.05 µM

# From BindingDB's records for patent US20250136619 (Halda Therapeutics OPCO, 2025)
